Test results taken from US20200214330A1, “RICE PROTEIN HYDROLYSATES WITH ANTI-INFLAMMATORY PROPERTIES” (ABBOTT LABORATORIES, priority 2017, published 2020).

Legend:
Format in all cases: cell-based, murine
[1] = tested on: 4-1BBL expression in RAW 264.7 cells; experiment: LPS-induced 4-1BBL expression in RAW 264.7 macrophage cells; conditions: 1 hour pretreatment at 0.5 μg/mL, FIG. 12
Method: FIG. 5 illustrates in vitro early (6 hours after LPS stimulation) and late phase (24 hours after LPS stimulation) inhibition of 4-1BBL expression in macrophage cells (RAW264.7) pre-incubated for 1 hour with RPH-land then treated with LPS; […] FIG. 12 illustrates in vitro early (6 hours after LPS stimulation) and late (24 hours after LPS stimulation) phase inhibition of 4-1BBL expression in macrophage cells (RAW264.7) pre-incubated for 1 hour with different levels of curcumin and then treated with LPS; Specific studies have determined effects of the hydrolysates on TNFα secretion, 4-1BBL expression, and NF-κB Expression in murine macrophages (RAW 264.7 cells) treated with LPS (see FIGS. 1-13). RPH-1 inhibits early and late phase TNFα secretion from cells in culture.

[2] = tested on: NF-κB activation in RAW 264.7 cells; experiment: LPS-induced NF-κB activation in RAW 264.7 macrophage cells; conditions: 2.5 μg/mL pretreatment for 2 hours; 30 min after LPS stimulation; FIG. 13
Method: FIG. 6 illustrates in vitro NF-κB activation (30 min after LPS stimulation) in macrophage cells (RAW264.7) preincubated for 2 hours with RPH-1 and then treated with LPS; FIG. 13 illustrates in vitro inhibition of nuclear factor kappa-light-chain-enhancer of activated B cells (NF-κB) activation in macrophage cells (RAW264.7) pre-incubated with curcumin for 2 hours and treated with LPS for 30 minutes; Specific studies have determined effects of the hydrolysates on TNFα secretion, 4-1BBL expression, and NF-κB Expression in murine macrophages (RAW 264.7 cells) treated with LPS (see FIGS. 1-13). Pretreatment with curcumin at 0.5 μg/mL and […] for 1 hour led to an inhibition of TNFα secretion (FIG. 11) and 4-IBBL expression (FIG. 12) at 6 hours and 24 hours following LPS treatment.

[3] = tested on: TNFα secretion from RAW 264.7 cells; experiment: LPS-induced TNFα secretion from RAW 264.7 macrophage cells; conditions: 1 hour pretreatment at 0.5 μg/mL, FIG. 11
Method: FIG. 11 illustrates in vitro early (6 hours after LPS stimulation) and late (24 hours after LPS stimulation) phase inhibition of TNFα secretion from macrophage cells (RAW264.7) pre-incubated with different levels of curcumin for 1 hour and then treated with LPS; Specific studies have determined effects of the hydrolysates on TNFα secretion, 4-1BBL expression, and NF-κB Expression in murine macrophages (RAW 264.7 cells) treated with LPS (see FIGS. 1-13). RPH-1 inhibits early and late phase TNFα secretion from cells in culture.

With `COc1cc(C=CC(=O)CC(=O)C=Cc2ccc(O)c(OC)c2)ccc1O` [curcumin, 1,7-Bis-(4-hydroxy-3-methoxyphenyl)-hepta-1,6-diene-3,5-dione] the “4-1BBL expression, early phase” value ([1]; 6 hours after LPS) was “inhibition”, the “4-1BBL expression, late phase” value ([1]; 24 hours after LPS) was “inhibition” and the “LPS-induced NF-κB expression” value [2] was “decreased”. For the same compound, the “TNFα secretion, early phase” value ([3]; 6 hours after LPS) was “inhibition” and the “TNFα secretion, late phase” value ([3]; 24 hours after LPS) was “inhibition”.
